Molecules are shown by their SMILES.

The target of this test is Replicase polyprotein 1ab (Severe acute respiratory syndrome coronavirus 2) (UniProt P0DTD1).

Description: Functional biochemical assay to identify treatments for viral infectious disease that targets SARS-COV-2 nsp3 macrodomain, whereby the mechanism of action displaces an ADP-Ribose modified peptide from the binding site. Utilizing a time-resolved fluorescence method to measure binding by reading the emitted fluorescence intensity in two wavelengths.

As for `CC(C)(c1noc(-c2ncnc3[nH]ccc23)n1)S(C)(=O)=O`, the inhibition (usually the relative decrease from the control value, in per cent) (Concentration 50.0 uM, Number of replicates 2.0, Standard deviation 1.059 %) was -0.756%.
In the case of `C[C@@H](CO)Nc1ncnc2[nH]c(C(=O)OC(C)(C)C)cc12`, the inhibition (Concentration 50.0 uM, Number of replicates 2.0, Standard deviation 12.843 %) amounted to 10.7%.
On to `C[C@@H]1[C@H](O)CCCN1C(=O)c1ccc(NC(=O)Nc2ccccc2)cc1`, for which the inhibition runs as follows: (Concentration 49.75 uM, Number of replicates 2.0, Standard deviation 0.457 %) -2.96%; (Concentration 99.5 uM, Number of replicates 2.0, Standard deviation 5.068 %) -2.72%.
For `Brc1ccc(-n2nnnc2Sc2ncnc3[nH]ccc23)cc1`, where the note is “Concentration 50.0 uM, Number of replicates 2.0, Standard deviation 10.96 %”, the inhibition is 12.7%.
On to `C(=C1CCCCC1)c1ncnc2[nH]ccc12`, for which the inhibition runs as follows: (Concentration 50.0 uM, Number of replicates 2.0, Standard deviation 3.96 %) -5.46%; (Concentration 100.0 uM, Number of replicates 2.0, Standard deviation 2.541 %) 3.46%.
For the compound `Cn1ncnc1C(=O)N1CCC(c2ccn3ncc(C(=O)N4CCCCC4)c3c2)CC1`, the inhibition came to 2.38% (Concentration 49.75 uM, Number of replicates 2.0, Standard deviation 0.221 %) and 20.4% (Concentration 99.5 uM, Number of replicates 2.0, Standard deviation 2.086 %).
With `CC(C)c1c[nH]nc1NC(=O)c1ccc(NC(=O)Nc2ccccc2)cc1`, the inhibition is 6.99% (Concentration 49.75 uM, Number of replicates 2.0, Standard deviation 3.059 %) and 8.5% (Concentration 99.5 uM, Number of replicates 2.0, Standard deviation 3.555 %).
Take `c1ccc(-c2nc(CNc3cccnc3)cs2)nc1`: the inhibition (Concentration 50.0 uM, Number of replicates 2.0, Standard deviation 0.432 %) is -9.87%.
As to `O=C(c1cc(O)ncn1)N1CCC(c2ccn3ncc(C(=O)N4CCCCC4)c3c2)CC1`, the inhibition by setting is: (Concentration 49.75 uM, Number of replicates 2.0, Standard deviation 0.931 %) 19.1%; (Concentration 99.5 uM, Number of replicates 2.0, Standard deviation 1.95 %) 30.9%.
As for `CO[C@@]1(C(=O)O)CCN(C(=O)c2ncnc3[nH]ccc23)C1`, the inhibition runs as follows: (Concentration 50.0 uM, Number of replicates 2.0, Standard deviation 2.289 %) -4.18%; (Concentration 100.0 uM, Number of replicates 2.0, Standard deviation 3.346 %) -3.71%.
`O=C(Nc1ccccc1)Nc1ccc(C(=O)NCc2ccnc(F)c2)cc1`: the inhibition was -0.36% (Concentration 49.75 uM, Number of replicates 2.0, Standard deviation 0.77 %) and 4.92% (Concentration 99.5 uM, Number of replicates 2.0, Standard deviation 1.377 %).
For `Cc1ncc(NCc2ncn(C)c2Cl)cc1C(N)=O`, the inhibition (Concentration 50.0 uM, Number of replicates 2.0, Standard deviation 1.923 %) worked out at 2.41%.
As to `O=C(NCc1cn[nH]c1)c1cnn2ccc(C3CCN(C(=O)c4ccccc4)CC3)cc12`, the inhibition runs as follows: (Concentration 49.75 uM, Number of replicates 2.0, Standard deviation 0.103 %) -2.37%; (Concentration 99.5 uM, Number of replicates 2.0, Standard deviation 3.225 %) -4.5%.
`CS(=O)(=O)N1CC[C@@H](COC(=O)c2ncnc3[nH]ccc23)C1`: for the setting “Concentration 50.0 uM, Number of replicates 2.0, Standard deviation 2.196 %”, the inhibition was 0.187%.
`CC(C)[C@@H](CCN(C)C(=O)c1cc2c(s1)CC[C@H](C)C2)Nc1ncnc2[nH]ccc12`: the inhibition (Concentration 49.75 uM, Number of replicates 2.0, Standard deviation 6.617 %) was -9.68%.
Turning to `C[C@@H]1CN(C(=O)c2ccc(NC(=O)Nc3ccccc3)cc2)CC(=O)N1`, the inhibition reads like this: (Concentration 49.75 uM, Number of replicates 2.0, Standard deviation 1.912 %) -0.707%; (Concentration 99.5 uM, Number of replicates 2.0, Standard deviation 5.834 %) 0.29%.
For the compound `CC(C)[C@H]1CNC(=O)CN1c1ncnc2[nH]ccc12`, the inhibition was 6.84% (Concentration 49.75 uM, Number of replicates 2.0, Standard deviation 0.296 %) and 17.6% (Concentration 99.5 uM, Number of replicates 2.0, Standard deviation 2.93 %).
As for `Cc1[nH]cnc1C(=O)N1CCC(c2ccn3ncc(C(=O)N4CCCCC4)c3c2)CC1`, the inhibition came out at 16.4% (Concentration 49.75 uM, Number of replicates 2.0, Standard deviation 1.318 %) and 32% (Concentration 99.5 uM, Number of replicates 2.0, Standard deviation 4.675 %).
As to `COC(=O)[C@]1(F)CCN(C(=O)c2ccc(NC(=O)Nc3ccccc3)cc2)C1`, the inhibition was -0.893% (Concentration 49.75 uM, Number of replicates 2.0, Standard deviation 1.195 %) and 0.834% (Concentration 99.5 uM, Number of replicates 2.0, Standard deviation 2.11 %).
As for `O=C(Cn1c(=O)[nH]c2ccccc21)Nc1cnc2[nH]ncc2c1`, under “Concentration 50.0 uM, Number of replicates 2.0, Standard deviation 2.142 %”, the inhibition was 1.78%.
With `Oc1ccccc1CNc1ncnc2cccnc12`, the inhibition (Concentration 49.75 uM, Number of replicates 2.0, Standard deviation 0.51 %) is -1.84% and the inhibition (Concentration 99.5 uM, Number of replicates 2.0, Standard deviation 1.128 %) was -0.535%.
`Cc1nc(NC(=O)c2nccc3ccncc23)c2cc[nH]c2n1`: the inhibition was -5.83% (Concentration 50.0 uM, Number of replicates 2.0, Standard deviation 2.951 %) and 2.61% (Concentration 100.0 uM, Number of replicates 2.0, Standard deviation 4.025 %).
Turning to `O[C@H]1C[C@](CNc2ncnc3[nH]ccc23)(c2ccccc2)C1`, the inhibition (Concentration 50.0 uM, Number of replicates 2.0, Standard deviation 6.633 %) was 11.4%.
With `O=C(NC[C@@H]1CCCCN1)c1cnn2ccc(C3CCN(C(=O)c4ccccc4)CC3)cc12`, the inhibition is -5.92% (Concentration 49.75 uM, Number of replicates 2.0, Standard deviation 3.98 %) and -2.57% (Concentration 99.5 uM, Number of replicates 2.0, Standard deviation 0.917 %).
Take `O=C1CCC[C@@H](C(=O)N(CCC(=O)N2CCNCC2)Cc2cccc(Cl)c2)N1`: the inhibition is, setting by setting: (Concentration 49.75 uM, Number of replicates 2.0, Standard deviation 3.727 %) 2.42%; (Concentration 99.5 uM, Number of replicates 2.0, Standard deviation 3.7 %) -3.31%.
On to `CN(CCOc1ccccc1)c1ncnc2[nH]ccc12`, for which, for the setting “Concentration 50.0 uM, Number of replicates 2.0, Standard deviation 4.668 %”, the inhibition was -2.26%.
In the case of `CN(c1ncnc2[nH]ncc12)[C@@H](CCO)c1ccccc1`, the inhibition is, setting by setting: (Concentration 49.75 uM, Number of replicates 2.0, Standard deviation 10.225 %) 8.86%; (Concentration 99.5 uM, Number of replicates 2.0, Standard deviation 3.705 %) 5.14%.
Turning to `O=C(CNc1ncnc2[nH]ccc12)N1CCc2ccccc21`, the inhibition (Concentration 50.0 uM, Number of replicates 2.0, Standard deviation 7.793 %) turned out to be 1.19%.
For the compound `O=C(CCN(Cc1cccc(Cl)c1)C(=O)[C@@H]1CC1(F)F)N1CCNCC1`, the inhibition runs as follows: (Concentration 49.75 uM, Number of replicates 2.0, Standard deviation 3.095 %) -2.07%; (Concentration 99.5 uM, Number of replicates 2.0, Standard deviation 1.648 %) -3.76%.
On to `Cn1cc(Br)c(CNC(=O)c2ccc(NC(=O)Nc3ccccc3)cc2)n1`, for which the inhibition came to 4.31% (Concentration 49.75 uM, Number of replicates 2.0, Standard deviation 4.908 %) and 1.2% (Concentration 99.5 uM, Number of replicates 2.0, Standard deviation 1.253 %).
With `Cc1ncc(C(=O)N(CCC(=O)N2CCNCC2)Cc2cccc(Cl)c2)cc1N`, the inhibition (Concentration 49.75 uM, Number of replicates 2.0, Standard deviation 3.028 %) was determined as 1.35% and the inhibition (Concentration 99.5 uM, Number of replicates 2.0, Standard deviation 0.599 %) came out at 1.3%.
As for `O=C(OCc1cccc(Cl)n1)c1ncnc2[nH]ccc12`, the inhibition (Concentration 50.0 uM, Number of replicates 2.0, Standard deviation 4.164 %) is 11.4%.
For `O=C(c1cn2ncccc2n1)N1CCC(c2ccn3ncc(C(=O)N4CCCCC4)c3c2)CC1`, the inhibition (Concentration 49.75 uM, Number of replicates 2.0, Standard deviation 0.525 %) was determined as 30.7% and the inhibition (Concentration 99.5 uM, Number of replicates 2.0, Standard deviation 6.296 %) is 53.8%.
Consider `Cc1cc(C(=O)Nc2[nH]nc3nc(O)ccc23)c2c(C)nn(C)c2n1`, for which the inhibition was -6.17% (Concentration 50.0 uM, Number of replicates 2.0, Standard deviation 0.36 %) and -3.32% (Concentration 100.0 uM, Number of replicates 2.0, Standard deviation 2.675 %).
Regarding `Cc1[nH]c2ncnc(NC(=O)C3CC=CC3)c2c1C`, under “Concentration 50.0 uM, Number of replicates 2.0, Standard deviation 5.54 %”, the inhibition turned out to be 73.1%.
In the case of `Cc1ncc(NCc2csc(-c3ccccn3)n2)cn1`, the inhibition (Concentration 49.75 uM, Number of replicates 2.0, Standard deviation 3.788 %) was -5.23% and the inhibition (Concentration 99.5 uM, Number of replicates 2.0, Standard deviation 2.632 %) was -4.49%.
As to `O=C(Nc1ccccc1)Nc1ccc(C(=O)NCCc2cccnc2)cc1`, the inhibition by setting is: (Concentration 49.75 uM, Number of replicates 2.0, Standard deviation 2.77 %) 1.27%; (Concentration 99.5 uM, Number of replicates 2.0, Standard deviation 0.373 %) 10.4%.
Turning to `O=C(Nc1cnn(C2CCNCC2)c1)c1ncnc2[nH]ccc12`, the inhibition (Concentration 50.0 uM, Number of replicates 2.0, Standard deviation 5.148 %) is -1.9%.
For `Cc1[nH]c2ncnc(NC(=O)CCc3ccccc3)c2c1C`, the inhibition (Concentration 50.0 uM, Number of replicates 2.0, Standard deviation 2.066 %) stood at 5.02%.
Turning to `O=C(c1cccnc1S)N1CCC(c2ccn3ncc(C(=O)N4CCCCC4)c3c2)CC1`, the inhibition worked out at 32.3% (Concentration 49.75 uM, Number of replicates 2.0, Standard deviation 1.032 %) and 52.6% (Concentration 99.5 uM, Number of replicates 2.0, Standard deviation 1.028 %).
Consider `O=C(N[C@@H](C(=O)O)[C@@H](O)Cc1ccccc1)c1ncnc2[nH]ccc12`, for which the inhibition (Concentration 49.75 uM, Number of replicates 2.0, Standard deviation 1.324 %) worked out at 3.79% and the inhibition (Concentration 99.5 uM, Number of replicates 2.0, Standard deviation 4.676 %) worked out at 12.3%.
Turning to `COc1cc(CC(=O)Nc2cc3c(=O)nc[nH]c3cn2)on1`, the inhibition by setting is: (Concentration 49.75 uM, Number of replicates 2.0, Standard deviation 0.449 %) -4.69%; (Concentration 99.5 uM, Number of replicates 2.0, Standard deviation 2.956 %) -3.48%.
For the compound `O=C(OCC(Br)=C1CCOCC1)c1ncnc2[nH]ccc12`, where the note is “Concentration 50.0 uM, Number of replicates 2.0, Standard deviation 2.217 %”, the inhibition is -5.36%.
Regarding `C[C@H](NC(=O)c1ccc(NC(=O)Nc2ccccc2)cc1)c1ccccn1`, the inhibition amounted to 2.45% (Concentration 49.75 uM, Number of replicates 2.0, Standard deviation 2.561 %) and 0.349% (Concentration 99.5 uM, Number of replicates 2.0, Standard deviation 6.365 %).
With `CCCNC(=O)[C@H]1CCCN(c2ncnc3[nH]ccc23)C1`, the inhibition (Concentration 50.0 uM, Number of replicates 2.0, Standard deviation 0.927 %) is -4.36%.

The values above are taken from ChEMBL document CHEMBL5442379, “ASAP - SARS-CoV-2 nsp3 macrodomain single point” (2024).
